Test systems include EKVX NSCLC; K-562 leukemia; SF-539 CNS; MALME-3M melanoma; KM12 colon; M14 melanoma; SNB-19 CNS; SNB-75 CNS; SN12C renal; CAKI-1 renal.
Common to all, as to assay: inhibition of tumour cell growth, NCI panel, 48 h

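The compound was tested at five concentrations on cells cultured in 96-well plates, with a 48-hour exposure period. Abbreviation: GI50, concentration required for 50% inhibition of growth. TGI: concentration producing complete growth inhibition.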

Regarding `CS(=O)(=O)OCCCOS(C)(=O)=O`, the TGI in the assay with EKVX NSCLC, with K-562 leukemia, in the assay with SF-539 CNS, in the assay on MALME-3M melanoma, in the assay with KM12 colon and with M14 melanoma was over 100 µM throughout. Further, the TGI in the assay on SNB-19 CNS, in the assay with SNB-75 CNS and in the assay on SN12C renal was over 100 µM each time.
Regarding `CC[C@@]12C=CC(=S)N(CCSc3ccccc3)[C@@H]1c1c(n(S(=O)(=O)c3ccc(OC)cc3)c3ccccc13)CC2`, the TGI in the assay on EKVX NSCLC, in the assay with CAKI-1 renal, in the assay with K-562 leukemia, in the assay with SF-539 CNS, with MALME-3M melanoma and in the assay on KM12 colon was over 100 µM in each case. Further, the TGI in the assay on M14 melanoma, in the assay with SNB-19 CNS, in the assay with SNB-75 CNS and in the assay on SN12C renal was over 100 µM each time.
For the compound `O=C(N/N=C\c1ccccc1)Nc1cccc2ccccc12`, the TGI with EKVX NSCLC, in the assay with CAKI-1 renal, with K-562 leukemia, with SF-539 CNS, with MALME-3M melanoma and in the assay on KM12 colon was over 100 µM each time. Besides, the TGI in the assay on M14 melanoma is 49.1 µM; with SNB-19 CNS, over 100 µM; with SNB-75 CNS, over 100 µM; with SN12C renal, 45.9 µM.
Regarding `COC(=O)c1ccccc1C1CN=NC12Cc1cccc(C)c1C2=O` (centres undefined), the TGI in the assay on EKVX NSCLC, in the assay on CAKI-1 renal, in the assay on K-562 leukemia, in the assay on SF-539 CNS, in the assay on MALME-3M melanoma and in the assay with KM12 colon was over 100 µM each time. Besides, the TGI in the assay with SNB-19 CNS, in the assay on SNB-75 CNS and in the assay on SN12C renal was over 100 µM each time.
With `COc1cc(C2c3cc4c(cc3[C@@H](Nc3cccc([N+](=O)[O-])c3)C3COC(=O)[C@H]23)OCO4)cc(OC)c1O` (some centres undefined), the TGI with EKVX NSCLC is over 38.2 µM; with CAKI-1 renal, 7.46 µM; in the assay on K-562 leukemia it was over 40.5 µM; with SF-539 CNS it was 4.02 µM; in the assay with MALME-3M melanoma, 20.1 µM; in the assay with KM12 colon, 16.9 µM. For the same compound, the TGI in the assay on SNB-19 CNS was over 31.4 µM; with SNB-75 CNS, over 22.7 µM; with SN12C renal it was over 22.2 µM.
Turning to `CC12CCC(C(Nc3ccccn3)C1=O)C2(C)C` (centres undefined), the TGI in the assay with EKVX NSCLC, in the assay on CAKI-1 renal, in the assay on K-562 leukemia, in the assay on SF-539 CNS, with MALME-3M melanoma and in the assay with KM12 colon was over 100 µM in each case. Moreover, the TGI in the assay on M14 melanoma, in the assay with SNB-19 CNS, in the assay with SNB-75 CNS and in the assay on SN12C renal was over 100 µM in each case.
Regarding `COc1cc2c(cc1OC)-c1cc3cc(OC)c(OC)cc3c(=O)n1CC2`, the TGI is over 100 µM in the assay with EKVX NSCLC; over 30.3 µM in the assay on CAKI-1 renal; over 100 µM with K-562 leukemia; 50.9 µM in the assay with SF-539 CNS; over 79.5 µM in the assay with MALME-3M melanoma; over 100 µM with KM12 colon. Also, the TGI with M14 melanoma was over 100 µM; in the assay on SNB-19 CNS, over 100 µM; in the assay on SNB-75 CNS, over 79.3 µM; in the assay on SN12C renal it was over 100 µM.
Consider `Oc1ccc(C#CCOc2ccccc2)cc1CNCCN(Cc1ccccn1)Cc1ccccn1`, for which the GI50 in the assay on EKVX NSCLC was 1.24 µM; with CAKI-1 renal it was 1.33 µM; in the assay with K-562 leukemia, 2.49 µM; in the assay on SF-539 CNS it was 1.6 µM; in the assay on MALME-3M melanoma, 1.63 µM; in the assay on KM12 colon, 1.28 µM. For the same compound, the GI50 was 0.797 µM in the assay on SNB-19 CNS, 1.24 µM in the assay on SNB-75 CNS and 1.08 µM with SN12C renal. Further, the TGI with EKVX NSCLC came out at 3.33 µM; in the assay on CAKI-1 renal, 2.75 µM; in the assay with K-562 leukemia it was 13.8 µM; in the assay with SF-539 CNS, 3.09 µM; in the assay with MALME-3M melanoma, 3.31 µM; with KM12 colon, 2.91 µM. Further, the TGI in the assay on SNB-19 CNS was 7.67 µM; with SNB-75 CNS, 4.13 µM; in the assay on SN12C renal, 2.65 µM.
As to `O=C1C(NCCN2CCOCC2)=C(Cl)C(=O)c2ncccc21`, the TGI was 2.79 µM in the assay on EKVX NSCLC; 2.53 µM in the assay with SF-539 CNS; 1.9 µM in the assay on MALME-3M melanoma; 2.61 µM with KM12 colon; 1.73 µM in the assay on M14 melanoma; 2.75 µM in the assay with SNB-19 CNS. The TGI in the assay with SNB-75 CNS amounted to 2.35 µM; with SN12C renal, 2.74 µM.
Turning to `O=C(OCc1ccccc1)N1CCN(C(=O)OCc2ccccc2)CCN(C(=O)OCc2ccccc2)CCN(C(=O)OCc2ccccc2)CCN(C(=O)OCc2ccccc2)CC1`, the TGI in the assay with EKVX NSCLC is over 100 µM; in the assay with CAKI-1 renal, over 100 µM; in the assay with SF-539 CNS, over 100 µM; in the assay with MALME-3M melanoma it was 61.2 µM; in the assay with KM12 colon, over 100 µM; with M14 melanoma, over 100 µM. Moreover, the TGI with SNB-19 CNS is over 100 µM; in the assay on SNB-75 CNS, 96.6 µM; in the assay with SN12C renal, over 100 µM.
As to `CC1(CC2=C(C(=O)NCCO[Si](C)(C)C(C)(C)C)C3(OCCO3)C2=O)OCCO1`, the TGI in the assay on EKVX NSCLC is over 100 µM; in the assay with CAKI-1 renal it was over 100 µM; in the assay with SF-539 CNS, over 100 µM; in the assay on MALME-3M melanoma, 72.7 µM; in the assay with KM12 colon, over 100 µM; in the assay on M14 melanoma, over 100 µM. Moreover, the TGI in the assay on SNB-19 CNS, with SNB-75 CNS and with SN12C renal was over 100 µM in each case.
For the compound `COc1ccc(/C=N/NC(=O)c2cnc3[nH]c(=O)n(C)c(=O)c3c2)cc1`, the TGI with EKVX NSCLC, in the assay on CAKI-1 renal, with K-562 leukemia, with MALME-3M melanoma, in the assay on KM12 colon and with M14 melanoma was over 100 µM each time. The TGI was 98.8 µM with SNB-19 CNS, 38.6 µM in the assay on SNB-75 CNS and over 100 µM in the assay on SN12C renal.
Take `NC(=O)c1nnsc1NC=O`: the TGI in the assay on EKVX NSCLC, in the assay with CAKI-1 renal, in the assay on K-562 leukemia, in the assay with MALME-3M melanoma, in the assay with KM12 colon and in the assay with M14 melanoma was over 100 µM each time. For the same compound, the TGI with SNB-19 CNS, in the assay with SNB-75 CNS and with SN12C renal was over 100 µM each time.
Consider `c1ccc2c(c1)CC1COc3ccccc3C1O2` (centres undefined), for which the TGI in the assay with EKVX NSCLC, in the assay on CAKI-1 renal, with K-562 leukemia, in the assay with SF-539 CNS, with MALME-3M melanoma and in the assay with KM12 colon was over 100 µM throughout. Also, the TGI in the assay with M14 melanoma, in the assay with SNB-75 CNS and with SN12C renal was over 100 µM throughout.
As for `CCCCCCC(C)OC(=O)/C=C(\CC(=O)OC(C)CCCCCC)C(=O)OC(C)CCCCCC` (centres undefined), the TGI in the assay with EKVX NSCLC, in the assay with CAKI-1 renal, in the assay with SF-539 CNS, in the assay with MALME-3M melanoma, in the assay on M14 melanoma and in the assay on SNB-75 CNS was over 100 µM in each case. Further, the TGI with SN12C renal was over 100 µM.
For `CC(=O)OCC1OC(O/C=C(\CN=[N+]=[N-])C(C)=O)C(OC(C)=O)C(OC(C)=O)C1OC(C)=O` (centres undefined), the TGI in the assay with EKVX NSCLC turned out to be 34.7 µM; in the assay on CAKI-1 renal it was 10.1 µM; in the assay on K-562 leukemia it was 23.6 µM; in the assay with MALME-3M melanoma, 10.3 µM; in the assay with KM12 colon it was 40.3 µM; with M14 melanoma, 23.1 µM. Further, the TGI is 83.8 µM in the assay on SNB-19 CNS, 33.3 µM in the assay on SNB-75 CNS and 29.5 µM in the assay with SN12C renal.
Turning to `COc1ccccc1NC(=O)O/N=C(/Cl)C(C)C`, the TGI with EKVX NSCLC was 29.6 µM; with K-562 leukemia it was 10.9 µM; in the assay on SF-539 CNS, 35.9 µM; in the assay on MALME-3M melanoma, 7.37 µM; in the assay on KM12 colon it was 39.3 µM; with M14 melanoma, 20.3 µM. Besides, the TGI was over 56.4 µM in the assay on SNB-19 CNS, 27.1 µM with SNB-75 CNS and 31.7 µM in the assay on SN12C renal.
In the case of `C=C1C(=O)O[C@@H]2[C@H](O)[C@@H](C)[C@@H]3C=CC(=O)[C@@]3(C)[C@H](OC(=O)C=C(C)C)[C@H]12`, the TGI in the assay with EKVX NSCLC amounted to 5.5 µM; in the assay on CAKI-1 renal, 1.74 µM; in the assay with K-562 leukemia, 0.518 µM; in the assay on SF-539 CNS, 0.596 µM; in the assay with MALME-3M melanoma it was 1.25 µM; in the assay with KM12 colon, 3.78 µM. In addition, the values for the TGI in the assay on SNB-19 CNS, in the assay on SNB-75 CNS and with SN12C renal were 17.2 µM, 7.86 µM and 2.27 µM, respectively.
`Cc1nc2ccccc2n1Cc1nnc(N)o1`: the TGI in the assay on EKVX NSCLC, in the assay with K-562 leukemia, in the assay on SF-539 CNS, in the assay with MALME-3M melanoma, in the assay with KM12 colon and in the assay on M14 melanoma was over 100 µM in each case. Moreover, the TGI in the assay with SNB-19 CNS, in the assay on SNB-75 CNS and in the assay with SN12C renal was over 100 µM each time.
Take `CC(=O)O[C@H]1C[C@H]2C(=S)Nc3ccccc3C(=S)N2C1`: the TGI with EKVX NSCLC, with CAKI-1 renal, in the assay with K-562 leukemia, in the assay on MALME-3M melanoma, with KM12 colon and with M14 melanoma was over 100 µM in each case. Also, the TGI with SNB-19 CNS, in the assay with SNB-75 CNS and in the assay on SN12C renal was over 100 µM throughout.
With `CC1CCc2sc3[nH]c(=S)n(-c4ccccc4)c(=O)c3c2C1` (centres undefined), the TGI in the assay on EKVX NSCLC, in the assay on CAKI-1 renal, with K-562 leukemia, in the assay on MALME-3M melanoma, in the assay on KM12 colon and in the assay on M14 melanoma was over 100 µM throughout. Moreover, the TGI in the assay with SNB-19 CNS is over 100 µM; with SNB-75 CNS, 91 µM; in the assay with SN12C renal, over 100 µM.
